Patent US11441119B2, “Culture media comprising n-Acyl-X-glutamine dipeptides” (Evonik Operations GmbH, priority 2017, dated 2022)
Residues, ends and D or L forms follow the SMILES beside them.

Legend:
[1] = system: Chinese Hamster Ovary (CHO) cells (Subclone DG44); test: Batch cultivation of CHO DG44 cells in glutamine-free PowerCHO-2 CD medium supplemented with glutamine sources: growth and productivity; format: cell-based; settings: for Relative cell-specific productivity: relative titer/IVCD relative to 100% free glutamine; for Relative time-related productivity: relative titer/cultivation time relative to free glutamine; for Relative titer / Cultivation time until 80% viability / Integrated viable cell density (IVCD): total glutamine 8 mM; for Relative titer: relative to titer of 100% free glutamine; for Cultivation time until 80% viability / Integrated viable cell density (IVCD): third passage; for Integrated viable cell density (IVCD): until viability below 80%; for Performance in batch cultivation, in words (titer, productivities): comparison of the supplements of Tables 1 and 2
Method: Acetyl-A-Q was mixed with free glutamine or A-Q in molar ratios between 0 and 100%. The mixtures were added to a glutamine-free medium (PowerCHO-2 CD, Lonza AG, Visp, Switzerland) to obtain a total glutamine concentration of 8 mM in the final medium. Growth and productivity were measured using Chinese Hamster Ovary (CHO) cells (Subclone DG44; Life Technologies Cooperation, Carlsbad, USA). Cultivation was continued up to the point where the viability of the culture dropped below 80%. Data from the third passage was used. All titer-related information is given relative to the titer of 100% free glutamine. Accordingly, the relative cell-specific productivity was obtained by first dividing the relative titer by the integrated viable cell density (IVCD), then dividing this number by the titer/IVCD ratio for 100% free glutamine. The relative time-specific productivity was obtained by dividing the relative titer by the cultivation duration until the sampling, then dividing this number by the titer/cultivation time ratio for free glutamine. In a second set of experiments within the same experimental campaign, acetyl-A-Q was mixed with A-Q and tested under the same conditions as described above. The 100% points for acetyl-A-Q as well as the free glutamine reference are identical to the first example.

[2] = system: Chinese Hamster Ovary (CHO) cells (Subclone DG44); test: Fed-batch cultivation of CHO DG44 cells with glutamine sources in basal medium and feed supplement: growth and productivity; format: cell-based
Method: Free glutamine, A-Q or Acetyl-A-Q were added to a glutamine-free medium (PowerCHO-2 CD, Lonza AG, Visp, Switzerland) to obtain a total glutamine concentration of 8 mM in the final medium.
In addition, these substances as well as a 75% mixture of acetyl-A-Q and A-Q were added to a glutamine-free formulation of a commercial feed supplement (CHOMACS Feed Supplement, Miltenyi Biotech, Germany) to yield a glutamine concentration of 5.5 g/L. Growth and productivity were measured using Chinese Hamster Ovary (CHO) cells (Subclone DG44; Life Technologies Cooperation, Carlsbad, USA).The results are summarized in Table 3. All titer-related information is given relative to the titer obtained by adding free glutamine to basal medium and feed. Accordingly, the relative cell-specific productivity was obtained by first dividing the relative titer by the integrated viable cell density (IVCD), then dividing this number by the titer/IVCD ratio for 100% free glutamine. The relative time-specific productivity was obtained by dividing the relative titer by the cultivation duration until the sampling, then dividing this number by the titer/cultivation time ratio for free glutamine.

[3] = basal medium source/feed source, 8 mM glutamine in medium, 5.5 g/L in feed

`C[C@H](N)C(=O)N[C@@H](CCC(N)=O)C(=O)O` [100% AQ, alanyl-glutamine] (H-Ala-Gln-OH) was tested. Which Relative cell-specific productivity ([1]; acetyl-A-Q mixed with A-Q) did it give?
The Relative cell-specific productivity was 75%.

And the Relative time-related productivity ([1]; acetyl-A-Q mixed with A-Q)?
The Relative time-related productivity was 102%.

And the Relative titer ([1]; acetyl-A-Q mixed with A-Q)?
The Relative titer was 1.10.

And the “Cultivation time until 80% viability” value ([1]; acetyl-A-Q mixed with A-Q)?
The value was 13.9.

What about the “Integrated viable cell density (IVCD)” value ([1]; acetyl-A-Q mixed with A-Q) of the same compound?
The value was 47.1.

And the “Performance in batch cultivation, in words (titer, productivities)” value [1]?
Its value is “performs at a lower level in all relevant categories”.

What does the source list for `NC(=O)CC[C@H](N)C(=O)O` [100% Q, L-glutamine]?
Relative cell-specific productivity ([1]; acetyl-A-Q mixed with A-Q): 100%; Relative time-related productivity ([1]; acetyl-A-Q mixed with A-Q): 100%; Relative titer ([1]; acetyl-A-Q mixed with A-Q): 1.00; Cultivation time until 80% viability ([1]; acetyl-A-Q mixed with A-Q): 12.9; Integrated viable cell density (IVCD) ([1]; acetyl-A-Q mixed with A-Q): 32.0; Relative cell-specific productivity ([1]; acetyl-A-Q mixed with free Q): 100%; Relative time-related productivity ([1]; acetyl-A-Q mixed with free Q): 100%; Relative titer ([1]; acetyl-A-Q mixed with free Q): 1.00; Cultivation time until 80% viability ([1]; acetyl-A-Q mixed with free Q): 12.9; Integrated viable cell density (IVCD) ([1]; acetyl-A-Q mixed with free Q): 32.0

What does the source list for `CC(=O)N[C@@H](C)C(=O)N[C@@H](CCC(N)=O)C(=O)O` [100% acetyl-A-Q, acetyl-A-Q] (Ac-Ala-Gln-OH)?
Relative cell-specific productivity ([1]; acetyl-A-Q mixed with A-Q): 434%; Relative time-related productivity ([1]; acetyl-A-Q mixed with A-Q): 99%; Relative titer ([1]; acetyl-A-Q mixed with A-Q): 1.37; Cultivation time until 80% viability ([1]; acetyl-A-Q mixed with A-Q): 17.9; Integrated viable cell density (IVCD) ([1]; acetyl-A-Q mixed with A-Q): 10.1; Relative cell-specific productivity ([1]; acetyl-A-Q mixed with free Q): 434%; Relative time-related productivity ([1]; acetyl-A-Q mixed with free Q): 99%; Relative titer ([1]; acetyl-A-Q mixed with free Q): 1.37; Cultivation time until 80% viability ([1]; acetyl-A-Q mixed with free Q): 17.9; Integrated viable cell density (IVCD) ([1]; acetyl-A-Q mixed with free Q): 10.1; Performance in batch cultivation, in words (titer, productivities) [1]: best values for relative titer and cell-specific productivity; Performance in fed-batch cultivation, in words (productivity, cell density, titer) ([2]; comparison of the combinations of Table 3): very high cell-specific productivities, but very low cell density

Which results are given for `CC(=O)N[C@@H](C)C(=O)N[C@@H](CCC(N)=O)C(=O)O` [Acetyl A-Q/acetyl-A-Q] (Ac-Ala-Gln-OH)?
Cultivation time until 80% viability [2, 3]: 15.0; Integrated viable cell density (IVCD) [2, 3]: 8.2; Relative cell-specific productivity ([2]; relative titer/IVCD relative to 100% free glutamine): 145%; Relative time-related productivity ([2]; relative titer/cultivation time relative to free glutamine): 18%; Relative titer ([2]; relative to titer with free glutamine in basal medium and feed): 0.2
